For series [1] the following is noted: in vivo; cited from earlier work.
The nature of series [2]: Measurement of migration into the blood (orally administered in vivo absorbability). More on the design: species or system SD male rats. The settings on record: rat, po, 150 umol/kg. As for the experimental part: Blood was collected from the tail vein 0 minutes (before the administration), 30 minutes, 1 hour, and 3 hours after the administration, and heparin was added thereto. Centrifugation was then performed, and, from the supernatant, heparin plasma samples were prepared. The concentrations of quercetin-glucuronide conjugate and quercetin in the prepared heparin plasma samples were measured by HPLC under the following conditions. AUC (Area under the curve) (0 to 3 hr) (μg/ml·hr) was then calculated based on the area under the curve of the plasma concentration of quercetin-glucuronide conjugate (μg/ml) and the area under the curve of the plasma concentration of quercetin (μg/ml). Quercetin-glucuronide conjugate and quercetin are both in vivo metabolites of isoquercitrin. […] Subsequently, in the same manner as in Experiment 1, plasma was prepared, and the plasma concentration of quercetin-glucuronide conjugate and that of quercetin were measured by HPLC. […] Subsequently, in the same manner as in Experiment 1, plasma was prepared, and the plasma concentration of quercetin-glucuronide conjugate and that of quercetin were measured by HPLC. AUC (Area under the curve) (0 to 3 hr) (μg/ml·hr) was then calculated based on the area under the curve of the plasma concentration of quercetin-glucuronide conjugate (μg/ml) and the area under the curve of the plasma concentration of quercetin (μg/ml). […]

`O=c1c(O[C@@H]2O[C@H](CO)[C@@H](O)[C@H](O)[C@H]2O)c(-c2ccc(O[C@@H]3O[C@H](CO)[C@@H](O)[C@H](O)[C@H]3O)c(O)c2)oc2cc(O)cc(O)c12` [Quercetin-3,4′-β-D-glucoside]: the absorbability entry in series [1] is “higher absorbability”.

For `O=c1c(O)c(-c2ccc(O[C@@H]3O[C@H](CO)[C@@H](O)[C@H](O)[C@H]3O)c(O)c2)oc2cc(O)cc(O)c12` [Quercetin-4′-β-D-glucoside], the absorbability result in series [1] is “higher absorbability”.

As to `O=c1c(OC2OC(CO)C(OC3OC(CO)C(O)C(O)C3O)C(O)C2O)c(-c2ccc(O)c(O)c2)oc2cc(O)cc(O)c12` (centres unmarked) [IQC-G1], in series [2], the “migration into the blood (orally administered in vivo absorbability), AUC (0 to 3 hr) of plasma quercetin-glucuronide conjugate plus quercetin” value was “higher absorbability in this order”. Turning to `O=c1c(O[C@@H]2O[C@H](CO)[C@@H](O)[C@H](O)[C@H]2O)c(-c2ccc(O)c(O)c2)oc2cc(O)cc(O)c12` [IQC, quercetin 3-O-μ-D-glucopyranoside], the absorbability result in series [1] is “higher absorbability than quercetin and rutin”. Further, in series [2], the “migration into the blood (orally administered in vivo absorbability), AUC (0 to 3 hr) of plasma quercetin-glucuronide conjugate plus quercetin” value was “reduce absorbability”.

(Values after US20090143317A1, “Quercetin Glycoside Composition and Method of Preparing the Same” (Suntory Limited, priority 2004, published 2009).)
